Measured values reported in US11365175B2, “Aromatic amides having a fungicidal activity, their agronomic compositions and relative preparation method” (ISAGRO S.p.A., priority 2017, dated 2022).

Legend:
Type in all cases: in vivo
Puccinia recondita = experiment: Preventive fungicidal activity (5 days) against Puccinia recondita on wheat; conditions: for P5 activity NT (parts developed during the test) / P5 activity T (parts treated directly with the products): wheat Salgemma, inoculation 5 days after spraying, reduction of diseased leaf area vs non-treated
Description: Determination of the Preventive Fungicidal Activity (5 Days) Against Puccinia recondita on Wheat
Leaves of wheat plants of the Salgemma variety, grown in pots in a conditioned environment at 20° C. and 70% of Relative Humidity (RH) were treated by spraying both sides of the leaves with the compound under examination (see Table 4 hereunder) dispersed in a hydroacetone solution at 20% by volume of acetone.
After remaining 5 days in a conditioned environment, the plants were sprayed on both sides of the leaves with an aqueous suspension of conidia of Puccinia recondita (2 mg of inoculum per 1 ml of solution for infection).
After spraying, the plants were kept in a humidity-saturated environment at a temperature ranging from 18 to 24° C. for the incubation period of the fungus (1 day).
At the end of this period, the plants were put in a greenhouse with a relative humidity (RH) of 70% and at a temperature of 18-24° C. for 14 days.
At the end of this period, the external symptoms of the pathogen appeared and it was therefore possible to proceed with the visual evaluation of the intensity of the infection, both on the parts treated directly with the products (T) and on the parts developed during the implementation of the test (NT).
The fungicidal activity is expressed as a percentage of the reduction, with respect to non-treated seedlings (comparison), in the area of the leaf affected by the disease (100=full effectiveness; 0=zero effectiveness).

Plasmopara viticola = experiment: Preventive activity (7 days) against Plasmopara viticola on vines; conditions: vine Merlot, inoculation 7 days after treatment, reduction of diseased leaf area vs non-treated
Description: Determination of the Preventive Activity (7 Days) of the Compounds Having Formula (I) Against Plasmopara viticola on Vines
Leaves of vine plants of the Merlot variety, grown in pots, in a conditioned environment, (20±1° C., 70% of R.H.) were treated by spraying both sides with the compound under examination.
7 days after the treatment, the plants were inoculated with an aqueous suspension of spores of Plasmopara viticola (200,000 spores/cc) by spraying both sides of the leaves with a compressed air gun.
After remaining 24 hours in a humidity-saturated environment, at 21° C. the plants were transferred for an incubation period (7 days) in a conditioned environment at 70% of R H. and at 24° C.
At the end of this period, the external symptoms of the pathogen appeared and it was therefore possible to proceed with the evaluation of the intensity of the infection.
The fungicidal activity was expressed as the reduction percentage, with respect to non-treated seedlings, in the area of the leaf affected by the disease (100=full effectiveness; 0=zero effectiveness).

Helmintosporium teres = experiment: Fungicidal activity against Helmintosporium teres on barley; conditions: barley cv. Gemini, scale 0 (plant completely infected) to 100 (healthy plant)
Description: Determination of the Fungicidal Activity of the Compounds Having Formula (I) Against Helmintosporium Teres on Barley
Leaves of barley plants (cultivar Gemini), grown in pots in a conditioned environment (20±1° C., 70% of R.H.), were treated by spraying both sides of the leaves with the compounds under examination, dispersed in a […] solution at 20% by volume of acetone.
After remaining 5 days in a conditioned environment, the plants were sprayed on both sides of the leaves with an aqueous suspension of conidia of Helmintosporium teres (50,000 conidia per cm^3 (adding Tween 20-1 drop/100 ml).
The plants were then kept in a controlled environment during the incubation period of the fungus (1 day wet room for infection, 3 days in a cell with R.H. 70% and […] for the incubation period, 3 days for wet room evasion, 12 days biological cycle).
At the end of this period (12 days), the fungicidal activity was evaluated according to an evaluation percentage scale from 0 (plant completely infected) to 100 (healthy plant).

CC(C)C(=O)OCOc1c(NC=O)cccc1C(=O)NC1CC(C)(C)CC(C)(C)C1 [Compound 1, 3-formylamino-2-[(2-methyl-propanoyl-oxy)methoxy]-N-(3,3,5,5-tetramethylcyclohexyl)benzamide]
P5 activity NT (parts developed during the test) (Puccinia recondita; 125 ppm): 60%
P5 activity T (parts treated directly with the products) (Puccinia recondita; 125 ppm): 70%
P5 activity NT (parts developed during the test) (Puccinia recondita; 250 ppm): 65%
P5 activity T (parts treated directly with the products) (Puccinia recondita; 250 ppm): 75%
fungicidal activity (full activity) (Puccinia recondita; dosage of 250 ppm, T/NT not specified): 100%
P7 activity (Plasmopara viticola; 30 ppm): 100%
P7 activity (Plasmopara viticola; 125 ppm): 100%
P7 activity (Helmintosporium teres; 125 ppm): 75%
P7 activity (Helmintosporium teres; 250 ppm): 80%

CC(C)C(=O)OCOc1c(C(=O)NC2CC(C)(C)CC(C)(C)C2)cccc1N(C=O)COC(=O)C(C)C [Compound 4, 3-(N′-formyl-N′-[(2-methylpropanoyl-oxy)methyl]amino)-2-[(2-methylpropanoyloxy)methoxy]-N-(3,3,5,5-tetramethylcyclohexyl)-benzamide]
P5 activity NT (parts developed during the test) (Puccinia recondita; 125 ppm): 65%
P5 activity T (parts treated directly with the products) (Puccinia recondita; 125 ppm): 70%
P5 activity NT (parts developed during the test) (Puccinia recondita; 250 ppm): 70%
P5 activity T (parts treated directly with the products) (Puccinia recondita; 250 ppm): 80%
P7 activity (Plasmopara viticola; 30 ppm): 100%
P7 activity (Plasmopara viticola; 125 ppm): 100%

CC1(C)CC(NC(=O)c2cccc(NC=O)c2O)CC(C)(C)C1 [CR1, 3-formylamino-2-hydroxy-N-(3,3,5,5-tetramethylcyclohexyl)benzamide, reference compound]
P5 activity NT (parts developed during the test) (Puccinia recondita; 125 ppm): 35%
P5 activity T (parts treated directly with the products) (Puccinia recondita; 125 ppm): 50%
P5 activity NT (parts developed during the test) (Puccinia recondita; 250 ppm): 50%
P5 activity T (parts treated directly with the products) (Puccinia recondita; 250 ppm): 65%
P7 activity (Plasmopara viticola; 30 ppm): 50%
P7 activity (Plasmopara viticola; 125 ppm): 65%
P7 activity (Helmintosporium teres; 125 ppm): 5%
P7 activity (Helmintosporium teres; 250 ppm): 15%
